Target: eosinophils purified from human peripheral blood
Assay: Eosinophil chemotaxis assay (eotaxin-induced)
Type: cell-based
Settings: functional pKi; inhibition of human eosinophil chemotaxis to eotaxin (EC80 concentration)
Method: (b) Eosinophil Chemotaxis Assay.
Compounds were evaluated for their inhibitory effect on eosinophil chemotaxis. Eosinophils were purified from human peripheral blood by standard CD16 cell depletion using a Miltenyi cell separation column and a magnetic Super Macs magnet as previously described (Motegi & Kita, 1998; J. Immunology. 161:4340-6). Cells were re-suspended in RPMI 1640/10% FCS solution and incubated with calcein-AM (Molecular Probes) at 37° C. for 30 mins. Following incubation, the eosinophils were centrifuged at 400 g for 5 min and re-suspended in RPMI/FCS at 2.2 million/ml. Cells were then incubated in the presence of increasing concentration of compounds (1 pM to 30 μM) at 37° C. for 30 mins. For control responses cells were incubated with RPMI/FCS only. The agonist eotaxin (an EC80 concentration) was added to the lower chamber of a 96 well chemotaxis plate (5 μm filter: Receptor Technologies). Eosinophils (50 μl of 2 million/ml cells) were added to the top chamber of the filter plate and incubated at 37° C. for 45 mins. Cells remaining on top of the chemotaxis filter were removed and the number of eosinophils which had migrated were quantified by reading the plate on a fluorescent plate reader. Inhibition curves for the effect of compounds on eosinophil chemotaxis were analysed by fitting the data with a four parameter logistic equation. […]

Row | fpKi | Compound
1 | 9.2 | O=C(NCc1nnn(CC2CC2)n1)NC[C@H]1CN(Cc2ccc(Cl)c(Cl)c2)CCO1 [Example 97, 1-(2-Cyclopropylmethyl-2H-tetrazol-5-ylmethyl)-3-[(2S)-4-(3,4-dichlorobenzyl)morpholin-2-ylmethyl]-urea]
2 | 9.8 | CNC(=O)c1csc(CNC(=O)NC[C@H]2CN(Cc3ccc(Cl)c(Cl)c3)CCO2)c1 [Example 116, 5-{3-[(2S)-4-(3,4-Dichlorobenzyl)-morpholin-2-ylmethyl]-ureidomethyl}-thiophene-3-carboxylic acid methylamide]

From US7622464B2, “Morpholinyl-urea derivatives for use in the treatment of inflammatory diseases” (Glaxo Group Limited, priority 2002, dated 2009)
